Results as given in patent US9290451B2 (Hoffmann-La Roche Inc., priority 2011, dated 2016).
Like-named read-outs stand apart in the source and are kept apart here.

Key:
human CB2 receptors = human CB2 receptors (Homo sapiens (Human), UniProt P34972); assay: cAMP assay, CHO cells expressing human CB2 receptors; format: cell-based
In short: (§1)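 CHO cells expressing human CB1 or CB2 were preincubated 30 min at 30 °C in Krebs Ringer bicarbonate buffer with 1 mM IBMX, then exposed to compound 30 min at 30 °C. cAMP quantified by time-resolved FRET against a cAMP standard curve; EC50 values derived.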

human CB1 receptors = human CB1 receptors (Homo sapiens (Human), UniProt P21554); assay: cAMP assay, CHO cells expressing human CB1 receptors; format: cell-based
In short: as §1

[1] = CHO cells expressing human CB2, cAMP, read-out: human CB2 EC50
[2] = CHO cells expressing human CB1, cAMP, read-out: human CB1 EC50

human CB1 receptors, sequence (P21554 whole entry): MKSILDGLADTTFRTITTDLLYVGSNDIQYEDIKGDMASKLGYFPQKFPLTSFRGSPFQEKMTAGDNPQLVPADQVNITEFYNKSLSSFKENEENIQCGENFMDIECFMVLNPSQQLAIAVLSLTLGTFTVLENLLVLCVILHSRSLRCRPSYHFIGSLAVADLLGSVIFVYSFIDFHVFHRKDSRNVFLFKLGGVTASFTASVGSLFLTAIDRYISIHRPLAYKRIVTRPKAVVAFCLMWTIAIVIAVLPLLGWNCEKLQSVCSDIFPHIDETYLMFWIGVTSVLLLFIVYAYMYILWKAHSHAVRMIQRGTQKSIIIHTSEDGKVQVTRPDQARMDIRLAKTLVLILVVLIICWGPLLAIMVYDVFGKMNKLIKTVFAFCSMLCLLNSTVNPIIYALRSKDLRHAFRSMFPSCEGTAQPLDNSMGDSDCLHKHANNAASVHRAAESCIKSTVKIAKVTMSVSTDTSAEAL
human CB2 receptors, sequence (P34972 whole entry): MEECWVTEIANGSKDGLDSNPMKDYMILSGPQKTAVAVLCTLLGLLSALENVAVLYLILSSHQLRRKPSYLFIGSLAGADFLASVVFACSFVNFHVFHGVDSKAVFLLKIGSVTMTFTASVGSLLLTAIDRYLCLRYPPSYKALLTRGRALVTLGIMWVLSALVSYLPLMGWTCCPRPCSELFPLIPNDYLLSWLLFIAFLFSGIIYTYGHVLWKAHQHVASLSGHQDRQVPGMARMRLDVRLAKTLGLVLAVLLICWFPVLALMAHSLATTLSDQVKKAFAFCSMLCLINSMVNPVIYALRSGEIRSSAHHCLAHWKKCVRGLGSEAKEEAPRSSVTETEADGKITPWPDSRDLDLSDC

SMILES	EC50 (human CB2 receptors; [1])	EC50 (human CB1 receptors; [2])	EC50 (human CB2 receptors)	EC50 (human CB1 receptors)
COc1ccc(C(=O)NC(C)(C)c2noc(C)n2)nc1-c1cccc(Cl)c1 [Example 89, 6-(3-Chloro-phenyl)-5-methoxy-pyridine-2-carboxylic acid [1-methyl-1-(5-methyl-[1,2,4]oxadiazol-3-yl)-ethyl]-amide]	119 nM	1360 nM		
COc1ccc(C(=O)NC(C)(C)c2ncco2)nc1-c1cccc(Cl)c1 [Example 90, 6-(3-Chloro-phenyl)-5-methoxy-pyridine-2-carboxylic acid (1-methyl-1-oxazol-2-yl-ethyl)-amide]	217 nM	> 10000 nM		
CCC(CC)(NC(=O)c1ccc(Cl)c(-c2cccc(Cl)c2)n1)C(=O)NC [Example 91, 5-Chloro-6-(3-chloro-phenyl)-pyridine-2-carboxylic acid (1-ethyl-1-methylcarbamoyl-propyl)-amide]	632 nM	> 10000 nM		
COC(=O)C1CCCCC1NC(=O)c1cccc(C2CCCCC2)n1 (stereo not shown) [Example 92, 2-[(6-Cyclohexyl-pyridine-2-carbonyl)-amino]-cyclohexanecarboxylic acid methyl ester]	320 nM	> 10000 nM		
CC(C)(NC(=O)c1ccc(C2CCOCC2)c(OCC2CC2)n1)c1ncco1 [Example 93, 6-Cyclopropylmethoxy-5-(tetrahydro-pyran-4-yl)-pyridine-2-carboxylic acid (1-methyl-1-oxazol-2-yl-ethyl)-amide]	120 nM	> 10000 nM		
O=C(NN1CCCCC1)c1cccc(C2CCCC2)n1 [Example 94, 6-Cyclopentyl-pyridine-2-carboxylic acid piperidin-1-ylamide]	129 nM	> 10000 nM		
CC(C)(NC(=O)c1ccc(C2CC2)c(-c2cccc(Cl)c2)n1)c1ncco1 [Example 95, 6-(3-Chloro-phenyl)-5-cyclopropyl-pyridine-2-carboxylic acid (1-methyl-1-oxazol-2-yl-ethyl)-amide]	83.9 nM	> 10000 nM		
Cc1nc(C(C)(C)NC(=O)c2ccc(C3CC3)c(-c3cccc(Cl)c3)n2)no1 [Example 96, 6-(3-Chloro-phenyl)-5-cyclopropyl-pyridine-2-carboxylic acid [1-methyl-1-(5-methyl-[1,2,4]oxadiazol-3-yl)-ethyl]-amide]	95.8 nM	1440 nM		
NC(=O)[C@H](CC1CC1)NC(=O)c1ccc(C2CC2)c(-c2cccc(Cl)c2)n1 [Example 97, 6-(3-Chloro-phenyl)-5-cyclopropyl-pyridine-2-carboxylic acid ((S)-1-carbamoyl-2-cyclopropyl-ethyl)-amide]	508 nM	> 10000 nM		
NC(=O)[C@H](CC1CC1)NC(=O)c1ccc(C2CC2)c(OCC2CC2)n1 [Example 98, 5-Cyclopropyl-6-cyclopropylmethoxy-pyridine-2-carboxylic acid ((S)-1-carbamoyl-2-cyclopropyl-ethyl)-amide]	27.6 nM	> 10000 nM		
O=C(N[C@@H](CC1CC1)c1nccs1)c1ccc(C2CC2)c(OCC2CC2)n1 [Example 99, 5-Cyclopropyl-6-cyclopropylmethoxy-pyridine-2-carboxylic acid ((S)-2-cyclopropyl-1-thiazol-2-yl-ethyl)-amide]	59.7 nM	> 10000 nM		
CC(C)C[C@H](NC(=O)c1ccc(C2CC2)c(OCC2CC2)n1)C(N)=O [Example 100, 5-Cyclopropyl-6-cyclopropylmethoxy-pyridine-2-carboxylic acid ((S)-1-carbamoyl-3-methyl-butyl)-amide]	1.2 nM	801 nM		
CC(C)(NC(=O)c1ccc(C2CCOC2)c(-c2cccc(Cl)c2)n1)c1nccs1 (stereo not shown) [Example 101, 6-(3-Chloro-phenyl)-5-(tetrahydro-furan-3-yl)-pyridine-2-carboxylic acid (1-methyl-1-thiazol-2-yl-ethyl)-amide]	102 nM	> 10000 nM		
Cc1nc(C(C)(C)NC(=O)c2ccc(N3CC(F)(F)C3)c(OCC3CC3)n2)no1 [Example 102, 6-Cyclopropylmethoxy-5-(3,3-difluoro-azetidin-1-yl)-pyridine-2-carboxylic acid [1-methyl-1-(5-methyl-[1,2,4]oxadiazol-3-yl)-ethyl]-amide]	62.7 nM	> 10000 nM		
NC(=O)[C@H](CC1CC1)NC(=O)c1ccc(N2CC(F)(F)C2)c(OCC2CC2)n1 [Example 103, 6-Cyclopropylmethoxy-5-(3,3-difluoro-azetidin-1-yl)-pyridine-2-carboxylic acid ((S)-1-carbamoyl-2-cyclopropyl-ethyl)-amide]	7 nM	> 10000 nM		
CC(C)(NC(=O)c1ccc(Cl)c(-c2cccc(Cl)c2)n1)c1ncco1 [Example 104, 5-Chloro-6-(3-chloro-phenyl)-pyridine-2-carboxylic acid (1-methyl-1-oxazol-2-yl-ethyl)-amide]	517 nM	> 10000 nM		

SMILES	EC50 (human CB2 receptors; [1])	EC50 (human CB1 receptors; [2])	EC50 (human CB2 receptors)	EC50 (human CB1 receptors)
CC(C)C[C@H](NC(=O)c1ccc(Cl)c(-c2cccc(Cl)c2)n1)C(N)=O [Example 105, 5-Chloro-6-(3-chloro-phenyl)-pyridine-2-carboxylic acid ((S)-1-carbamoyl-3-methyl-butyl)-amide]	208 nM	> 10000 nM		
Cc1nc(C(C)(C)NC(=O)c2ccc(C3CCCC3)c(-c3cccc(Cl)c3)n2)no1 [Example 106, 6-(3-Chloro-phenyl)-5-cyclopentyl-pyridine-2-carboxylic acid [1-methyl-1-(5-methyl-[1,2,4]oxadiazol-3-yl)-ethyl]-amide]	215 nM	> 10000 nM		
NC(=O)[C@H](CC1CC1)NC(=O)c1ccc(C2CCCC2)c(OCC2CC2)n1 [Example 107, 5-Cyclopentyl-6-cyclopropylmethoxy-pyridine-2-carboxylic acid ((S)-1-carbamoyl-2-cyclopropyl-ethyl)-amide]	10.7 nM	1460 nM		
Cc1nc(C(C)(C)NC(=O)c2ccc(Cl)c(OCC3CC3)n2)no1 [Example 108, 5-Chloro-6-cyclopropylmethoxy-pyridine-2-carboxylic acid [1-methyl-1-(5-methyl-[1,2,4]oxadiazol-3-yl)-ethyl]-amide]	190 nM	> 10000 nM		
CCC(CC)(NC(=O)c1ccc(Cl)c(OCC2CC2)n1)C(=O)NC [Example 109, 5-Chloro-6-cyclopropylmethoxy-pyridine-2-carboxylic acid (1-ethyl-1-methylcarbamoyl-propyl)-amide]	178 nM	> 10000 nM		
NC(=O)[C@H](CC1CC1)NC(=O)c1ccc(Br)c(OCC2CC2)n1 [Example 110, 5-Bromo-6-cyclopropylmethoxy-pyridine-2-carboxylic acid ((S)-1-carbamoyl-2-cyclopropyl-ethyl)-amide]	224 nM	> 10000 nM		
CCC(CC)(NC(=O)c1ccc(C2CCCC2)c(OCC2CC2)n1)C(=O)NC [Example 111, 5-Cyclopentyl-6-cyclopropylmethoxy-pyridine-2-carboxylic acid (1-ethyl-1-methylcarbamoyl-propyl)-amide]	6.9 nM	> 10000 nM		
NC(=O)[C@H](CC1CC1)NC(=O)c1ccc(N2CCC(F)(F)C2)c(OCC2CC2)n1 [Example 112, 6-Cyclopropylmethoxy-5-(3,3-difluoro-pyrrolidin-1-yl)-pyridine-2-carboxylic acid ((S)-1-carbamoyl-2-cyclopropyl-ethyl)-amide]	15.4 nM	> 10000 nM		
NC(=O)[C@H](CC1CC1)NC(=O)c1ccc(C(F)(F)F)c(OCC2CC2)n1 [Example 113, 6-Cyclopropylmethoxy-5-trifluoromethyl-pyridine-2-carboxylic acid ((S)-1-carbamoyl-2-cyclopropyl-ethyl)-amide]	200 nM	> 10000 nM		
CC(C)C[C@H](NC(=O)c1ccc(C2CCOC2)c(OCC2CC2)n1)C(N)=O (stereo partly drawn) [Example 114, 6-Cyclopropylmethoxy-5-(tetrahydro-furan-3-yl)-pyridine-2-carboxylic acid ((S)-1-carbamoyl-3-methyl-butyl)-amide]	5.7 nM	703 nM		
CC(C)C[C@H](NC(=O)c1ccc(C2CCCO2)c(OCC2CC2)n1)C(N)=O (stereo partly drawn) [Example 115, 6-Cyclopropylmethoxy-5-(tetrahydro-furan-2-yl)-pyridine-2-carboxylic acid ((S)-1-carbamoyl-3-methyl-butyl)-amide]	6.6 nM	953 nM		
CC(C)(NC(=O)c1ccc(C2CC2)c(-c2cccc(Cl)c2)n1)c1nccs1 [Example 116, 6-(3-Chloro-phenyl)-5-cyclopropyl-pyridine-2-carboxylic acid (1-methyl-1-thiazol-2-yl-ethyl)-amide]			85.9 nM	1450 nM
COCCOCC(C)(C)NC(=O)c1ccc(C2CC2)c(OCC2CC2)n1 [Example 117, 5-Cyclopropyl-6-cyclopropylmethoxy-pyridine-2-carboxylic acid [2-(2-methoxy-ethoxy)-1,1-dimethyl-ethyl]-amide]	350 nM	> 10000 nM		
CC(C)C[C@H](NC(=O)c1ccc(C(F)(F)F)c(OCC2CC2)n1)C(N)=O [Example 118, 6-Cyclopropylmethoxy-5-trifluoromethyl-pyridine-2-carboxylic acid ((S)-1-carbamoyl-3-methyl-butyl)-amide]	13.4 nM	1550 nM		
CC(C)(NC(=O)c1ccc(C(F)(F)F)c(OCC2CC2)n1)c1ncon1 [Example 119, 6-Cyclopropylmethoxy-5-trifluoromethyl-pyridine-2-carboxylic acid (1-methyl-1-[1,2,4]oxadiazol-3-yl-ethyl)-amide]	227 nM	> 10000 nM		
Cc1nc(C(C)(C)NC(=O)c2ccc(C(F)(F)F)c(OCC3CC3)n2)no1 [Example 120, 6-Cyclopropylmethoxy-5-trifluoromethyl-pyridine-2-carboxylic acid [1-methyl-1-(5-methyl-[1,2,4]oxadiazol-3-yl)-ethyl]-amide]	259 nM	> 10000 nM		
